Reference: a melting point compilation (Tetko et al.; mined from patent text by program, amines drawn as free bases though some values may be those of a salt)

Row | SMILES | melting point [°C]
1 | CC1C(=O)N(Oc2ccc(F)cc2F)Cc2ccc(NC3CCOCC3)nc21 (centres undefined) | 238 to 239
2 | COC(=O)C(=NO)c1cc(Cl)nc(NC=O)n1 | 110 to 112
3 | CC1(C)CC(OC(=O)Nc2ccccc2)CC(C)(C)N1OC(=O)Nc1ccccc1 | 188 to 190
4 | CC(=O)Nc1cccc(C(=O)c2[nH]c3cc(Cl)ccc3c2NC(C)=O)c1 | 225 to 228
5 | CSCCOC(=O)N(C)c1cnc(-c2cncc(F)c2)s1 | 115 to 117
6 | CC(C)OP(=O)(CNc1cc(Oc2ccc(C(F)(F)F)cc2Cl)ccc1[N+](=O)[O-])OC(C)C | 93 to 94
7 | CC1Nc2cc(Br)ccc2NC1=O (centres undefined) | 133 to 135
8 | Cc1[nH]cnc1CSCCNc1[nH]cc(Cc2ccccc2)c1[N+](=O)[O-] | 192 to 193
9 | CCOC(=O)c1cc2ccc(Cl)cc2n1C | 75.5 to 76.5
10 | CCc1nn(-c2ccc3cc(-c4ccc([N+](=O)[O-])cc4)c(=O)oc3c2)nc1C | 278 to 279
11 | O=C1NC(=S)SC1Cc1cccc2c1CCC(=O)N2Cc1ccc(Br)cc1 (centres undefined) | 191 to 192
12 | CSCCC(=O)Nc1cc(-c2c(-c3ccc(F)c(C)c3)nc3cccnn23)ccn1 | 158 to 159
13 | c1ccc(Cn2c(-c3ccc4c(c3)OCO4)nc3ccccc32)cc1 | 143 to 145
14 | O=C1CC(c2cccc(Cl)c2)c2cc(C(=O)c3ccc([N+](=O)[O-])cc3)ccc2N1 (centres undefined) | 147
15 | COc1cc2[nH]c(=O)nc(C)c2c(C)c1OC | 78 to 81
16 | COc1ccc(CNc2c(C)c(C)c3c(c2C)C(c2ccc(C(C)C)cc2)C(C)(C)O3)cc1 (centres undefined) | 95 to 96
17 | CC(C)C1NC(=S)N(c2ccc(N(C)C)c3ccccc23)C1=O (centres undefined) | 108 to 110
18 | Cc1cc(=O)c2c(OCCOc3ccccc3)cccc2o1 | 142 to 144
19 | Cc1cc(CSCCNC(=C[N+](=O)[O-])NCC(O)c2cccc(Br)c2)sc1CN(C)C (centres undefined) | 104 to 106
20 | CC(c1cccc(C(F)(F)F)c1N)S(C)(=O)=O (centres undefined) | 153 to 155
21 | O=C(O)c1sc(Cl)nc1-c1ccccc1 | 170 to 171
22 | C[C@H](NC(=O)c1c[nH]c2ncc(-c3ccc(C(F)(F)F)cc3)nc12)C(C)(C)C | > 300
23 | C=C(c1ccc(Cl)cc1)c1ccc(NC(=O)c2cc(I)cc(I)c2O)cc1Cl | 171 to 175

Row | SMILES | melting point [°C]
24 | CCN(C)c1nc2sc3c(NCCCN4CCCC4=O)ncnc3c2c2c1CCC(C)(C)C2 | 166 to 167
25 | COc1cc2c(cc1O)C(OC)CN(Cc1cc(OC)c(OC)c(OC)c1)C2 (centres undefined) | 51 to 54
26 | CC(C)Oc1cc(-n2c(=O)[nH]c(C(F)(F)F)c(F)c2=O)c(F)cc1Cl | 133 to 135
27 | COC(=O)c1cc(Cl)c(Oc2ccc(OC)c(Cc3ccc(F)cc3)c2)c(Cl)c1 | 108 to 110
28 | CC(C)c1nc2c(C(F)(F)F)cccc2c(O)c1C(=O)O | 204
29 | O=C(Cc1csc(Nc2ccccc2)n1)NC1CCN(Cc2ccc(Cl)c(Cl)c2)CC1 | 191 to 192
30 | COc1cccc(Oc2cccc(C#CC(C)N(O)C(N)=O)c2)n1 (centres undefined) | 90 to 91
31 | CCOC(=O)c1nc2ccc(N)cc2[nH]1 | 147 to 149
32 | N#Cc1csc(CN2C(=O)C3(COc4cc5c(cc43)OCO5)c3ccccc32)c1 (centres undefined) | 207 to 209
33 | Nc1ccc2[nH]nc(-c3ccccc3)c2c1 | 104
34 | O=C(O)C1CCCCC1C(=O)CCSSCCC(=O)C1CCCCC1C(=O)O (centres undefined) | 167 to 170
35 | CN1C(=O)c2ccccc2C(CCO)N1c1cccc([N+](=O)[O-])c1 (centres undefined) | 183 to 184
36 | O=S(=O)(NCc1ccc(Cl)cc1)c1c[nH]cn1 | 196 to 198
37 | COc1ccc(OC(=O)Nc2cc(C(=O)O)cc(C(=O)O)c2)cc1 | > 300
38 | CSc1cc(C(=O)c2cc(C(C)(C)C)c(O)c(C(C)(C)C)c2)cn1C | 173 to 175
39 | Nc1[nH]ncc1-c1cccc(N2CCN(CCO)CC2)c1 | 40 to 48
40 | CNc1ccc(Cl)cc1Cc1ccccc1 | 125
41 | O=C(Nc1cc(Cl)cc(Cl)c1)c1cc(Br)cc(Br)c1O | 181 to 182
42 | CC#Cc1cn(C2CC(OC(C)=O)C(COC(C)=O)O2)c(=O)[nH]c1=O (centres undefined) | 148 to 149
43 | COc1cc(CC(=O)C(CNCCOc2ccc(C(=O)O)cc2OC)NC2CC2)ccc1NC(=O)Nc1ccccc1C (centres undefined) | 135 to 140
44 | O=C(O)c1c(C(O)=S)cc([N+](=O)[O-])cc1-c1ccccc1 | 182 to 184
45 | CC(=O)Nc1cccc(Nc2ncnc3[nH]cc(C(=O)c4cccc5ccccc45)c23)c1 | > 300
46 | CC(C)(C)N1CCCC1=C(C#N)c1ccc(Cl)cc1 | 150 to 153

Row | SMILES | melting point [°C]
47 | Cc1cc(-c2cccnc2)n2ncc(C(=O)c3ccccc3)c2n1 | 196 to 198
48 | Cc1ccc(S(=O)(=O)NCc2ccccc2)cc1 | 115 to 116
49 | Cc1ccc(C)c2c1C(=O)N(CCl)S2(=O)=O | 107 to 108
50 | COC(=O)c1ccc(OCCCCCOc2ccc(C#N)cc2)c(OC)c1 | 105 to 107
51 | CC(C)(C)c1cc(CC(O)=S)cc(C(C)(C)C)c1O | 130
52 | COc1cccc(OC)c1-c1cc(C(=O)NC2(C(=O)O)C3CCCC2CCC3)nn1-c1ccc(C(=O)N(C)CCCN(C)C)cc1C(C)C (centres undefined) | 160
53 | Cc1cc(Cl)cc2c(-c3ccccc3)onc12 | 108 to 109
54 | CSc1cc2ccccc2cc1C=Cc1cc2ccccc2cc1SC | 195 to 196
55 | CCOC(=O)c1cn(-c2nc(N)c(F)cc2F)c2c(F)c(F)c(F)c(N)c2c1=O | 225 to 230
56 | COc1ccc(-c2cccc(OC3SCC(O)C(O)C3O)c2)cn1 (centres undefined) | 174
57 | COc1ccc2c(c1)c1c(n2C(=O)c2ccc(F)cc2)CCC(C(=O)O)C1 (centres undefined) | 258 to 260
58 | CCN(CC)c1ccc(C(F)(F)F)cc1NC(=O)c1ccncc1 | 78 to 80
59 | CCN(CC)c1ccc([N+](=O)[O-])c(N2CCN(C(C)=O)CC2)n1 | 120
60 | CCCCCn1c2ccc(C(=S)N3CCCCC3)cc2c2ccc(OC)cc21 | 116 to 118
61 | COc1ccc(S(=O)(=O)NC(C)c2cc(F)ccc2-c2ccccc2F)cc1 (centres undefined) | 133 to 135
62 | CC(C)(C)OC(=O)N1CCN(C(=O)c2ccc(-c3[nH]nc4c3C(=O)c3c(NC(=O)NN5CCOCC5)cccc3-4)s2)CC1 | 225 to 226
63 | COc1nccc(C(F)(F)F)c1S(=O)(=O)Nc1nc2c(OC)cnc(OC)n2n1 | 214 to 216
64 | N#CN=CNC1c2ccccc2CC2CCCCC21 (centres undefined) | 145 to 165
65 | CSc1nc(OCC(F)(F)F)c(C#N)c(N2CCc3ccccc3CC2)n1 | 108 to 110
66 | COC(=O)c1cc2cc(OC)c(OC)cc2c(-c2ccnc(-n3c(=O)cc(NCCCn4ccnc4)c4ccccc43)c2)c1C(=O)OC | 142 to 148
67 | CCN(CC)CCn1c(=O)c2cc(OC)c(OC)cc2c2cnc3cc4c(cc3c21)OCO4 | 159 to 160
68 | CC1(C)C(=O)Nc2cc3[nH]c(-c4ccc(-n5ccnc5)cc4)nc3cc21 | 300
69 | COC(=O)c1cc(-n2c(-c3ccccc3)cc3c2CCCC3)ccc1O | 141 to 142
